# Source: ChEMBL document CHEMBL4177592, “Discovery of renin inhibitors containing a simple aspartate binding moiety that imparts reduced P450 inhibition” (Bioorg Med Chem Lett, 2017)
# Assays:
# Cytochrome P450 3A4 = Cytochrome P450 3A4 (Homo sapiens, UniProt P08684); experiment: Inhibition of human CYP3A4 expressed in Escherichia coli co-expressing CYP-reductase using diethoxyfluorescein as substrate measured after 10 mins by fluorescence assay
# Renin [1] = target: T1, Renin (Homo sapiens, UniProt P00797); experiment: Inhibition of trypsin-activated recombinant human Fc-tagged renin expressed in BacMam virus infected HEK-F cells using Arg-Glu-Lys(5-Fam)-Ile-His-Pro-Phe-His-Leu-Val-IleHis-Thr-Lys(5,6 Tamra)-Arg-CONH2 as substrate measured after 2 hrs
# T1 sequence (P00797 whole entry): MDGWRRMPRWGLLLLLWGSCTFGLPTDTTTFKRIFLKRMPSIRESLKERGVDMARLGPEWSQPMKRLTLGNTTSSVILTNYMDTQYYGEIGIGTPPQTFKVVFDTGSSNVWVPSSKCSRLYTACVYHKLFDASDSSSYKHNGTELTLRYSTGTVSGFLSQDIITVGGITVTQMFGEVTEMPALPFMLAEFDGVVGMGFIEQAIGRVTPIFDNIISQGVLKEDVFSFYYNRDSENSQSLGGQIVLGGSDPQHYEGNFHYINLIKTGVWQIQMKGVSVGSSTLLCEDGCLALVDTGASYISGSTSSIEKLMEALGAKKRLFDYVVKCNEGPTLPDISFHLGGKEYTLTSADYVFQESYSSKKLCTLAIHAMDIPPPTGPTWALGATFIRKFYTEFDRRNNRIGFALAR
# Renin [2] = target: T1, Renin; experiment: Inhibition of renin in human plasma using angiotensinogen as substrate measured for 90 mins by [125I]-angiotensin based radioimmunoassay
# Sequence of Cytochrome P450 3A4 (P08684 whole entry): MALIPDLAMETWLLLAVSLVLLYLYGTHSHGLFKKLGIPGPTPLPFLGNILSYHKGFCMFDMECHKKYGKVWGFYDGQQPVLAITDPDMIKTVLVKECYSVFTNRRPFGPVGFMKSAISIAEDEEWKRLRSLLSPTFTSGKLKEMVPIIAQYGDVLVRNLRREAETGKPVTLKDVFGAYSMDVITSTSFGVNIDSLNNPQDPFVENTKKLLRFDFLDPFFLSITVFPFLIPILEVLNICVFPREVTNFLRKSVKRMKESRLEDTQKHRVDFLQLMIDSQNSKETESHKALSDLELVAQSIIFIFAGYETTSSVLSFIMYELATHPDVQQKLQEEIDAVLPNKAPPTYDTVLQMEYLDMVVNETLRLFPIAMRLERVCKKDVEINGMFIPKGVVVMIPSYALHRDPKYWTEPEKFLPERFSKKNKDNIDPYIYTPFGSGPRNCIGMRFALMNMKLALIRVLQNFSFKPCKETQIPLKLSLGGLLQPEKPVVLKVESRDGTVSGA
SMILES,IC50 (Cytochrome P450 3A4),IC50 (Renin [1]),IC50 (Renin [2])
CCc1cccc(-c2c(F)cccc2C(O)(CCCNC(=O)OC)[C@@H]2CCCN(C(=O)CCCN)C2)c1 (some centres undefined),240 nM,1 nM,13 nM
CCc1cccc(-c2c(F)cccc2C(O)(CCCNC(=O)OC)[C@@H]2CCCN(C(=O)CCCNCCO)C2)c1 (some centres undefined),–,2.5 nM,63 nM
CCc1cccc(-c2c(F)cccc2C(O)(CCCNC(=O)OC)[C@@H]2CCCN(C(=O)[C@@H]3CC[C@H](N)C3)C2)c1 (some centres undefined),90 nM,0.6 nM,3.3 nM
CCc1cccc(-c2c(F)cccc2C(O)(CCCNC(=O)OC)[C@@H]2CCCN(C(=O)[C@@H](O)CCN)C2)c1 (some centres undefined),–,40 nM,840 nM
CCc1cccc(-c2c(F)cccc2C(O)(CCCNC(=O)OC)[C@@H]2CCCN(C(=O)CC[C@H](N)CO)C2)c1 (some centres undefined),–,20 nM,460 nM
CCc1cccc(-c2c(F)cccc2C(O)(CCCNC(=O)OC)[C@@H]2CCCN(C(=O)CC3CCCN3)C2)c1 (some centres undefined),–,800 nM,–
CCc1cccc(-c2c(Cl)cccc2C(O)(CCCNC(=O)OC)[C@@H]2CCCN(C(=O)[C@@H]3CC[C@H](NC)C3)C2)c1 (some centres undefined),49 nM,0.6 nM,4.3 nM
CCc1cccc(-c2c(F)cccc2C(O)(CCCNC(=O)OC)[C@@H]2CCCN(C(=O)CC[C@H](N)C(=O)O)C2)c1 (some centres undefined),–,320 nM,–
CCc1cccc(-c2c(F)cccc2C(O)(CCCNC(=O)OC)[C@@H]2CCCN(C(=O)CC[C@H](N)C(=O)OC)C2)c1 (some centres undefined),–,25 nM,540 nM
CCc1cccc(-c2c(F)cccc2C(O)(CCCNC(=O)OC)[C@@H]2CCCN(C(=O)C3CCCNC3)C2)c1 (some centres undefined),–,320 nM,–
CCc1cccc(-c2c(F)cccc2C(O)(CCCNC(=O)OC)[C@@H]2CCCN(C(=O)CN)C2)c1 (some centres undefined),–,63 nM,3800 nM
CCc1cccc(-c2c(F)cccc2C(O)(CCCNC(=O)OC)[C@@H]2CCCN(C(=O)C3CCNC3)C2)c1 (some centres undefined),–,25 nM,540 nM
CCc1cccc(-c2c(F)cccc2C(O)(CCCNC(=O)OC)[C@@H]2CCCN(C(=O)NCCN)C2)c1 (some centres undefined),–,3.2 nM,150 nM
CCc1cccc(-c2c(Cl)cccc2C(O)(CCCNC(=O)OC)[C@@H]2CCCN(C(=O)[C@H]3C[C@@H](N)[C@@H](O)C3)C2)c1 (some centres undefined),250 nM,0.3 nM,1.8 nM
CCc1cccc(-c2c(F)cccc2C(O)(CCCNC(=O)OC)[C@@H]2CCCN(C(=O)CC(CNC)OC)C2)c1 (some centres undefined),–,5 nM,50 nM
CCc1cccc(-c2c(Cl)cccc2C(O)(CCCNC(=O)OC)[C@@H]2CCCN(C(=O)CCCNC)C2)c1 (some centres undefined),140 nM,1 nM,16 nM
CCc1cccc(-c2c(F)cccc2C(O)(CCCNC(=O)OC)[C@@H]2CCCN(C(=O)CC3CCNCC3)C2)c1 (some centres undefined),–,1.6 nM,23 nM
CCc1cccc(-c2c(F)cccc2C(O)(CCCNC(=O)OC)[C@@H]2CCCN(C(=O)CC3CCCNC3)C2)c1 (some centres undefined),–,2 nM,40 nM

SMILES,IC50 (Cytochrome P450 3A4),IC50 (Renin [1]),IC50 (Renin [2])
CCc1cccc(-c2c(F)cccc2C(O)(CCCNC(=O)OC)[C@@H]2CCCN(C(=O)CCN)C2)c1 (some centres undefined),–,100 nM,–
CCc1cccc(-c2c(F)cccc2C(O)(CCCNC(=O)OC)[C@@H]2CCCN(C(=O)CC(O)CNC)C2)c1 (some centres undefined),840 nM,2 nM,29 nM
CCc1cccc(-c2c(F)cccc2C(O)(CCCNC(=O)OC)[C@@H]2CCCN(C(=O)C[C@H](O)CN)C2)c1 (some centres undefined),–,1.3 nM,–
CCc1cccc(-c2c(F)cccc2C(O)(CCCNC(=O)OC)[C@@H]2CCCN(C(=O)C3CCNCC3)C2)c1 (some centres undefined),–,6.3 nM,102 nM
CCc1cccc(-c2c(F)cccc2C(O)(CCCNC(=O)OC)[C@@H]2CCCN(C(=O)C3CNCCO3)C2)c1 (some centres undefined),–,1000 nM,–
CCc1cccc(-c2c(F)cccc2C(O)(CCCNC(=O)OC)[C@@H]2CCCN(C(=O)CCCN(C)C)C2)c1 (some centres undefined),–,630 nM,–
CCc1cccc(-c2c(F)cccc2C(O)(CCCNC(=O)OC)[C@@H]2CCCN(C(=O)C3CCCCN3)C2)c1 (some centres undefined),–,2000 nM,–
CCc1cccc(-c2c(F)cccc2C(O)(CCCNC(=O)OC)[C@@H]2CCCN(C(=O)CC[C@H](N)C(=O)OCc3ccccc3)C2)c1 (some centres undefined),–,16 nM,450 nM
CCc1cccc(-c2c(Cl)cccc2C(O)(CCCNC(=O)OC)[C@@H]2CCCN(C(=O)[C@@H]3CC[C@H](N)C3)C2)c1 (some centres undefined),34 nM,3.1 nM,8.4 nM
CCc1cccc(-c2c(F)cccc2C(O)(CCCNC(=O)OC)[C@@H]2CCCN(C(=O)CCC3CCCCN3)C2)c1 (some centres undefined),–,126 nM,–
CCc1cccc(-c2c(F)cccc2C(O)(CCCNC(=O)OC)[C@@H]2CCCN(C(=O)CCCCCN)C2)c1 (some centres undefined),–,3.2 nM,100 nM
CCc1cccc(-c2c(F)cccc2C(O)(CCCNC(=O)OC)[C@@H]2CCCN(C(=O)CC[C@@H](N)CO)C2)c1 (some centres undefined),–,6.3 nM,180 nM
CCc1cccc(-c2c(F)cccc2C(O)(CCCNC(=O)OC)[C@@H]2CCCN(C(=O)CC(O)CN)C2)c1 (some centres undefined),440 nM,2 nM,36 nM
CCc1cccc(-c2c(F)cccc2C(O)(CCCNC(=O)OC)[C@@H]2CCCN(C(=O)CCCCN)C2)c1 (some centres undefined),–,2 nM,120 nM
CCc1cccc(-c2c(F)cccc2C(O)(CCCNC(=O)OC)[C@@H]2CCCN(C(=O)CCC3CCNCC3)C2)c1 (some centres undefined),–,80 nM,–
CCc1cccc(-c2c(F)cccc2C(O)(CCCNC(=O)OC)[C@@H]2CCCN(C(=O)NCCNC)C2)c1 (some centres undefined),–,6.3 nM,120 nM
CCc1cccc(-c2c(F)cccc2C(O)(CCCNC(=O)OC)[C@@H]2CCCN(C(=O)CC3CNCCO3)C2)c1 (some centres undefined),–,1.6 nM,24 nM
CCc1cccc(-c2c(F)cccc2C(O)(CCCNC(=O)OC)[C@@H]2CCCN(C(=O)CC[C@H](N)C(N)=O)C2)c1 (some centres undefined),–,630 nM,–
